Several values for one entry are separate records, joined by “and”; a condition that tells them apart may be missing. Equal values may be shown once. Read-outs that look alike come from different tables or passages of the source.
Tests used:
[1] = target: T1, PDK1 (Homo sapiens, UniProt O15530); assay: Thermo Fisher "PDK1 Direct" assay (peptide Ser/Thr 07, FRET readout); format: biochemical; conditions: for Hill slope, PDK1 direct / IC50: 10-point titration
T1 sequence (O15530 1-556): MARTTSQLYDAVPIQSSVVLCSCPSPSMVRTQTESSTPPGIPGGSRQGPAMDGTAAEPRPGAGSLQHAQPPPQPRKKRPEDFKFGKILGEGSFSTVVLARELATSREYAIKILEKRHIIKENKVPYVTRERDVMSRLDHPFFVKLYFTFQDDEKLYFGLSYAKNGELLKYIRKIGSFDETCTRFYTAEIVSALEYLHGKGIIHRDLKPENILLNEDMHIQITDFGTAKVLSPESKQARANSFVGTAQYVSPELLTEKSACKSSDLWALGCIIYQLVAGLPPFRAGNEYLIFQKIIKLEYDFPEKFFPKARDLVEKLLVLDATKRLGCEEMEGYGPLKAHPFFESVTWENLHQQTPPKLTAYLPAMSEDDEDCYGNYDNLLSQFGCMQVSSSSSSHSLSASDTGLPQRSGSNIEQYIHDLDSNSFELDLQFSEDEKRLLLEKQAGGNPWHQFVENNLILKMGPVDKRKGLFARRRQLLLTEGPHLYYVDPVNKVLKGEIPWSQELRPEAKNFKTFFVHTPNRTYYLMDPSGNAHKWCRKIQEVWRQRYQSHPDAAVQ

[2] = target: T2, GST-PDK1_1-556 (Homo sapiens, UniProt O15530); assay: AlphaScreen biotin-PIP3 / GST-PDK1_1-556 displacement; format: binding; conditions: PIP3 20 nM, GST-PDK1 3 nM
T2 construct: made in house; host or cells: HEK293 cells (transient transfection of pEBG2T); peptide synthesized by Pepscan
T2 sequence (O15530 1-556): T1 sequence (O15530 1-556)
Protocol: (§1) The AlphaScreen® assay was performed following the general guidelines from the manufacturer (Perkin Elmer) ([29]). In short, the assay was performed in a final volume of 25 μl in white 384-well microtiter plates (Greiner) in a standard buffer containing 50 mM Tris-HCl (pH 7.4), 100 mM NaCl, 2 mM DTT, 0.01% (v/v) Tween-20 and 0.1% (w/v) BSA, with the addition of 5 μl of beads (anti-GST coated acceptor beads and streptavidin-coated donor beads; nickel chelate-coated acceptor beads and streptavidin-coated donor beads; or nickel chelate-coated acceptor beads and GSH-coated donor beads, 20 μg/ml final concentrations for each bead type). AlphaScreen assays for His-tagged proteins and GST-fusion proteins were performed using nickel chelate-coated acceptor beads and GSH-coated donor beads; alphascreen assays for His-tagged proteins and biotinylated molecules were performed using nickel chelate-coated acceptor beads and streptavidin-coated donor beads; alphascreen assays for GST-fusion proteins and biotinylated molecules were performed using anti-GST coated acceptor beads and streptavidin-coated donor beads (Perkin Elmer).
The conditions for each AlphaScreen assay were identified in cross-titration experiments for each interaction to choose the ideal pair of concentrations within the linear range of the interactions. As required, the standard conditions were modified to use less material, to increase binding of the interacting molecules, to lower background signal, and so on. His-PDK1 and GST-fusion protein in the presence or absence of the different compounds were incubated in the dark for 60 min at room temperature and the emission of light from the acceptor beads was measured in an EnVision reader (Perkin Elmer) or Spark plate reader (Tecan). AlphaScreen assays were performed at least twice, although most experiments were performed multiple times by different researchers with different batches of purified proteins with similar results.
(§2) Biotin-PIP3 interactions with GST-PDK1_1-556 or GST-PDK1_360-556 were assessed in the standard buffer. […]

[3] = target: T3, GST-PDK1_360-556 (Homo sapiens, UniProt O15530); assay: AlphaScreen biotin-PIP3 / GST-PDK1_360-556 (linker-PH domain) displacement; format: binding; conditions: PIP3 20 nM, GST-PDK1 3 nM
T3 construct: GST-PDK1_360-556 (GST-PDK1-Linker-PH) was cloned into the BamHI-KpnI sites in pEBG2T plasmid; made in house; host or cells: HEK293 cells (transient transfection of pEBG2T)
T3 sequence (O15530 360-556): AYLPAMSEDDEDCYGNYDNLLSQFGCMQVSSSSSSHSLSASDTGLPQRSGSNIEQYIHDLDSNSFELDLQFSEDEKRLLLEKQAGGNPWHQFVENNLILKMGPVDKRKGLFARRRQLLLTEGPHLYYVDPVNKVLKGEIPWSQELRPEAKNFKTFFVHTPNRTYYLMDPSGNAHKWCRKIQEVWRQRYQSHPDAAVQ
Protocol: The AlphaScreen® assay was performed following the general guidelines from the manufacturer (Perkin Elmer) ([29]). In short, the assay was performed in a final volume of 25 μl in white 384-well microtiter plates (Greiner) in a standard buffer containing 50 mM Tris-HCl (pH 7.4), 100 mM NaCl, 2 mM DTT, 0.01% (v/v) Tween-20 and 0.1% (w/v) BSA, with the addition of 5 μl of beads (anti-GST coated acceptor beads and streptavidin-coated donor beads; nickel chelate-coated acceptor beads and streptavidin-coated donor beads; or nickel chelate-coated acceptor beads and GSH-coated donor beads, 20 μg/ml final concentrations for each bead type). […]
(§3) The conditions for each AlphaScreen assay were identified in cross-titration experiments for each interaction to choose the ideal pair of concentrations within the linear range of the interactions. […] His-PDK1 and GST-fusion protein in the presence or absence of the different compounds were incubated in the dark for 60 min at room temperature and the emission of light from the acceptor beads was measured in an EnVision reader (Perkin Elmer) or Spark plate reader (Tecan). […]
as §2

[4] = target: T4, PDK1_1-556 (Homo sapiens, UniProt O15530); assay: Differential scanning fluorimetry, thermal stability of PDK1_1-556; format: binding; conditions: PDK1 1 μM
T4 construct: effect of HYG8 on the thermal stability (ΔTm) of PDK1_1-556 (H) and PDK1_50-359 (I); His (N); made in house; host or cells: Sf9 insect cells (baculovirus)
T4 sequence (O15530 1-556): T1 sequence (O15530 1-556)
Protocol: The thermal stability of PDK1 was assessed by monitoring the unfolding of PDK1 by the increase in the fluorescence of SYPRO Orange (Invitrogen) using a real-time PCR device (StepOnePlus, Applied Biosystems and BioRad CFX96) following a previously described protocol ([70]). The reactions were performed in a final volume of 10 μl in white 96-well PCR microtiter plates (Greiner) and contained 1 μM PDK1, 10 mM HEPES (pH 7.5), 150 mM NaCl, 1/1000 SYPRO Orange and 1 mM dithiothreitol. For valsartan, the assay buffer was modified to exclude NaCl. PIFtide or compounds (at a final DMSO concentration of 1%) were added to this reaction mixture. The temperature gradient was performed in steps of 0.3 °C in the range from 25 to 70 °C. To calculate the Tm values, data were exported to GraphPad Prism and curves fitted to a Boltzmann sigmoidal equation with an acceptable confidence interval of 95%. Statistical analysis was performed with Infostat software (http://www.infostat.com.ar) and GraphPad Prism by first verifying a normal distribution of pooled residuals (Shapiro-Wilks test) and homogeneity of variance (F test), and then performing a one-way ANOVA followed by the post hoc comparisons test indicated in each figure legend.

[5] = target: T5, His-PDK1_1-556 and GST-PDK1_360-556 (Homo sapiens, UniProt O15530); assay: AlphaScreen PDK1 dimerization assay His-PDK1_1-556 / GST-PDK1_360-556; format: binding
T5 construct: made in house; host or cells: Sf9 insect cells (His-PDK1_1-556); HEK293 cells (GST-PDK1_360-556)
T5 sequence (O15530 1-556): T1 sequence (O15530 1-556)
Protocol: as §1, §3

[6] = target: T2, GST-PDK1_1-556; assay: AlphaScreen GST-PDK1_1-556 / biotin-PIFtide interaction; format: binding
Protocol: as §1
The interaction between GST-PDK1_1-556 and biotin-PIFtide was performed as described previously ([29], [32]) in the standard buffer, but the bead concentration was lowered to 15 μg/ml.

[7] = replicate point 1, read-out: % Inhibition Point 1
[8] = replicate point 2, read-out: % Inhibition Point 2
[9] = single point, N=2, read-out: Inhibition at 1 μM (%)
[10] = absence of PIFtide, read-out: IC50 (nM), displacement of His-PDK1_1-556 interaction with GST-PDK1_360-556
[11] = with PIFtide, read-out: IC50 (nM), displacement of His-PDK1_1-556 interaction with GST-PDK1_360-556 with PIFtide

Row | SMILES | inhibition at 1 µM [1, 7] | inhibition at 1 µM [1, 8] | inhibition at 1 µM [1, 9] | Tm (°C), temperature stabilization of PDK1_1-556 ([4]; compound 1 µM) | Tm (°C), temperature stabilization of PDK1_1-556 ([4]; compound 20 µM) | IC50 [5, 10] | IC50 [5, 11] | effect on PDK1-PIFtide interaction [6] | Hill slope, PDK1 direct [1] | IC50 [1] | times less potent inhibitors than HYG7, HYG8 and HYG14 ([1]; PDK1 Direct assay IC50 comparison) | displacement of PIP3 from GST-PDK1_1-556 [2] | displacement of PIP3 from GST-PDK1_360-556 [3] | effect on PDK1 dimer formation [5]
1 | CC(C)C(NCc1ccc(-c2ccccc2-c2nnn[nH]2)cc1)C(=O)O (centres unmarked) [Des(oxopentyl) valsartan, des(oxopentyl)valsartan, reference compound] |  |  |  |  |  |  |  |  |  |  |  |  |  | did not disrupt PDK1 dimers
2 | CNc1nc(-c2ccc3c(N)n[nH]c3c2)cc(N2C[C@@H](C(=O)NC3CCCCC3)CC[C@H]2C)n1 [GSK2334470] |  |  |  |  |  |  |  |  |  |  |  |  |  | None of these compounds affected the dimerization
3 | O=P(O)(O)OC1[C@H](O)[C@H](OP(=O)(O)O)C(OP(=O)(O)O)[C@H](OP(=O)(O)O)[C@H]1O (some centres unmarked) [IP4, inositol-1,3,4,5-tetrakisphosphate, reference compound] |  |  |  |  |  |  |  | did not enhance binding to PIFtide |  |  |  |  |  | 

Continued, in another order:

Row | inhibition at 1 µM [1, 7] | inhibition at 1 µM [1, 8] | inhibition at 1 µM [1, 9] | Tm (°C), temperature stabilization of PDK1_1-556 ([4]; compound 1 µM) | Tm (°C), temperature stabilization of PDK1_1-556 ([4]; compound 20 µM) | IC50 [5, 10] | IC50 [5, 11] | effect on PDK1-PIFtide interaction [6] | Hill slope, PDK1 direct [1] | IC50 [1] | times less potent inhibitors than HYG7, HYG8 and HYG14 ([1]; PDK1 Direct assay IC50 comparison) | SMILES | displacement of PIP3 from GST-PDK1_1-556 [2] | displacement of PIP3 from GST-PDK1_360-556 [3] | effect on PDK1 dimer formation [5]
4 | 9% | 11% | ≤ 10% | 2.9 °C | 6.0 °C | 458 nM | 159 nM | virtually no effect |  |  |  | NCCO[C@H]1[C@@H](OP(=O)(O)O)[C@H](OP(=O)(O)O)[C@@H](OP(=O)(O)O)[C@H](OP(=O)(O)O)[C@H]1OP(=O)(O)O [AMR1474, 2-O-(2-aminoethyl)-IP5] | lacked or showed reduced ability to displace | lacked or showed reduced ability to displace | 
5 | 53% | 64% | 59% | 7.8 °C | 9.9 °C | 27 nM | 17.9 nM |  | 1.11 | 449 nM | 15 to 36 times | CC(=O)O[C@H]1[C@@H](OP(=O)(O)O)[C@H](OP(=O)(O)O)[C@@H](OP(=O)(O)O)[C@H](OP(=O)(O)O)[C@H]1OP(=O)(O)O [HYG6, 2-O-acetyl-IP5] |  |  | 
6 | 101% | 99% | 100% | 12.6 °C and 11-15 °C | 14.5 °C and 13-16 °C | 22.6 nM | 22.7 nM |  | 1.39 | 29 nM |  | CCCC(=O)O[C@H]1[C@@H](OP(=O)(O)O)[C@H](OP(=O)(O)O)[C@@H](OP(=O)(O)O)[C@H](OP(=O)(O)O)[C@H]1OP(=O)(O)O [HYG7, 2-O-butyryl-IP5] |  |  | 

From article PMC7614687, “Modulation of the substrate specificity of the kinase PDK1 by distinct conformations of the full-length protein*” (Science signaling, 2023)
